The nature of data set [1]: Determination of brain to plasma ratio in rat. The note with it: female, Sprague-Dawley, brain and plasma, read-out: Brain to Plasma Ratio of compound in Rat. It counts as in vivo, female Sprague Dawley rats. As to the method: Brain to plasma ratios are estimated in female Sprague Dawley rats. The compound is dissolved in water or another appropriate vehicle. For determination of brain to plasma ratio the compound is administrated as a subcutaneous, or an intravenous bolus injection, or an intravenous infusion, or an oral administration. At a predetermined time point after the administration a blood sample is taken with cardiac puncture. The rat is terminated by cutting the heart open, and the brain is immediately retained. The blood samples are collected in heparinized tubes and centrifuged within 30 minutes, in order to separate the plasma from the blood cells. The plasma is transferred to 96-well plates and stored at −20° C. until analysis. The brains are divided in half, and each half is placed in a pre-tarred tube and stored at −20° C. until analysis. Prior to the analysis, the brain samples are thawed and 3 ml/g brain tissue of distilled water is added to the tubes. The brain samples are sonicated in an ice bath until the samples are homogenized. Both brain and plasma samples are precipitated with acetonitrile. After centrifugation, the supernatant is diluted with 0.2% formic acid. […] After reconstitution of the residuals the samples are ready for injection onto the HPLC column.

A further data set deals with T1, human mGluR5d (Homo sapiens, UniProt P41594).
T1 construct: expressed in transfected cells; The IP3 assay uses GHEK cells stably expressing human mGluR5d
T1 sequence (P41594 21-942 isoform P41594-3 limits assumed): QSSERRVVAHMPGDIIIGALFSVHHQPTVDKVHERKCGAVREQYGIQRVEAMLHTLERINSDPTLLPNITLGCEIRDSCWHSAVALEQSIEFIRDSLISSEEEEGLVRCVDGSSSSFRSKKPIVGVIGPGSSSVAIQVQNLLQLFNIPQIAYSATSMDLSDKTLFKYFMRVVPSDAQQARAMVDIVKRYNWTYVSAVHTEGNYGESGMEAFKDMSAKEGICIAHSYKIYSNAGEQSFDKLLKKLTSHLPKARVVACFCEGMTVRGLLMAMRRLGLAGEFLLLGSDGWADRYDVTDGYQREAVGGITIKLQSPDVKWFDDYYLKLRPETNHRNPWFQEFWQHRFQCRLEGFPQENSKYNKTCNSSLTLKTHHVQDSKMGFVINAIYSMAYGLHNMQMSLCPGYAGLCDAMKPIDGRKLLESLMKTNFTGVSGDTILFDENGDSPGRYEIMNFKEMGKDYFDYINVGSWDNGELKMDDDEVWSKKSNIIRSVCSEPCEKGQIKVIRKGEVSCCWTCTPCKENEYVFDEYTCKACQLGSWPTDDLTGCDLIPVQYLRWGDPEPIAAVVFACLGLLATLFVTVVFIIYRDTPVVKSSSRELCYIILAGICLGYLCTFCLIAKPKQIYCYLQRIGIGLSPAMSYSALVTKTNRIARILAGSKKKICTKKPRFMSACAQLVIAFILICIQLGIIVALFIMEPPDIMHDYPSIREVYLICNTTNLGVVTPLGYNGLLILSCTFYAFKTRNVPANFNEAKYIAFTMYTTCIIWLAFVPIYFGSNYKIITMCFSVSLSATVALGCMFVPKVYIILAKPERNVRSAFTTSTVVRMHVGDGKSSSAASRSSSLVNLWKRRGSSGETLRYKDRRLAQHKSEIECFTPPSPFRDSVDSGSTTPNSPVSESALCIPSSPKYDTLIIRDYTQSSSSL
The data set can be described thus: FLIPR assay, mobilization of intracellular calcium in cells expressing mGluR5d. Type of data set: cell-based. The text has this:
The properties of the compounds of the invention can be analyzed using standard assays for pharmacological activity. Examples of glutamate receptor assays are well known in the art as described in for example Aramori et al, Neuron 8:757 (1992), Tanabe et al., Neuron 8:169 (1992), Miller et al., J. Neuroscience 15: 6103 (1995), Balazs, et al., J. Neurochemistry 69:151 (1997). The methodology described in these publications is incorporated herein by reference. Conveniently, the compounds of the invention can be studied by means of an assay (FLIPR) that measures the mobilization of intracellular calcium, [Ca^2+]i in cells expressing mGluR5 or another assay (IP3) that measures inositol phosphate turnover.
Cells expressing human mGluR5d as described in WO97/05252 are seeded at a density of 100,000 cells per well on collagen coated clear bottom 96-well plates with black sides and experiments are done 24 h following seeding. […] The fluorescence signal is sampled 50 times at 1 second intervals followed by 3 samples at 5 second intervals immediately after each of the two additions. Responses are measured as the difference between the peak height of the response to agonist, less the background fluorescence within the sample period. […]

One compound from US20070259895A1, “MGluR5 modulators VI” (AstraZeneca AB, priority 2006, published 2007) can be followed below.

Structures are written as SMILES.

As a reminder, the IC50 is the midpoint of a concentration-inhibition curve.

Regarding `COc1cc(-c2nnc3n2CCCN3Cc2cc(-c3cccc(Cl)c3)on2)ccn1` [Example 11.2, 8-{[5-(3-Chlorophenyl)isoxazol-3-yl]methyl}-3-(2-methoxypyridin-4-yl)-5,6,7,8-tetrahydro[1,2,4]triazolo[4,3-a]pyrimidine], the Kp in data set [1] was found to be 0.36. Also, at human mGluR5d, the IC50 came out at 51 nM.
